{"source": "patent US11339447B2", "about": "“System and method for determining Kareniticin sensitivity on cancer” (CROWN BIOSCIENCE, INC. (TAICANG), priority 2017, dated 2022)", "experiment_in_all_cases": "karenitecin treatment of PDX model", "assay_type_in_all_cases": "in vivo", "design_in_all_cases": "key to Response: responder: responded to karenitecin treatment (AUC<0.5 and TGI>0.8); non_responder: did not respond to karenitecin treatment (AUC>0.5 and TGI<0.6)", "conditions_in_all_cases": "karenitecin treatment for two weeks", "key": {"PDX CR0126": {"test_system": "PDX CR0126", "description": "(§1) A cohort of 48 PDX models in 8 cancers were used in this study. Those models were subject to karenitecin treatment for two weeks. Both tumor growth inhibition (TGI) and median AUC (area under curve) ratio, a newly developed metric to evaluate drug efficacy, were calculated (Table 1). Those models can be divided into two categories according to TGI and median AUC ratio."}, "PDX CR0133": {"test_system": "PDX CR0133", "description": "as §1"}, "PDX CR1451": {"test_system": "PDX CR1451", "description": "as §1"}, "PDX CR1560": {"test_system": "PDX CR1560", "description": "as §1"}, "PDX CR2524": {"test_system": "PDX CR2524", "description": "as §1"}, "PDX CR3079": {"test_system": "PDX CR3079", "description": "as §1"}, "PDX CR3085": {"test_system": "PDX CR3085", "description": "as §1"}, "PDX CR3310": {"test_system": "PDX CR3310", "description": "as §1"}, "PDX ES0201": {"test_system": "PDX ES0201", "description": "as §1"}, "PDX GA3102": {"test_system": "PDX GA3102", "description": "as §1"}, "PDX LU0858": {"test_system": "PDX LU0858", "description": "as §1"}, "PDX LU1116": {"test_system": "PDX LU1116", "description": "as §1"}, "PDX LU1155": {"test_system": "PDX LU1155", "description": "as §1"}, "PDX LU1271": {"test_system": "PDX LU1271", "description": "as §1"}, "PDX OV0243": {"test_system": "PDX OV0243", "description": "as §1"}, "PDX OV0273": {"test_system": "PDX OV0273", "description": "as §1"}, "PDX PA1301": {"test_system": "PDX PA1301", "description": "as §1"}, "PDX PA3065": {"test_system": "PDX PA3065", "description": "as §1"}}}
{"compound": "CC[C@@]1(O)C(=O)OCc2c1cc1n(c2=O)Cc2c-1nc1ccccc1c2CC[Si](C)(C)C", "note": "[karenitecin]", "values": [{"measurement": "Median AUC ratio", "setting": "PDX CR0126", "result": 1.399}, {"measurement": "Response", "setting": "PDX CR0126", "result": "non_responder"}, {"measurement": "TGI", "setting": "PDX CR0126", "result": "−0.308"}, {"measurement": "Median AUC ratio", "setting": "PDX CR0133", "result": 0.275}, {"measurement": "Response", "setting": "PDX CR0133", "result": "responder"}, {"measurement": "TGI", "setting": "PDX CR0133", "result": 0.905}, {"measurement": "Median AUC ratio", "setting": "PDX CR1451", "result": 0.069}, {"measurement": "Response", "setting": "PDX CR1451", "result": "responder"}, {"measurement": "TGI", "setting": "PDX CR1451", "result": 1.173}, {"measurement": "Median AUC ratio", "setting": "PDX CR1560", "result": 0.397}, {"measurement": "Response", "setting": "PDX CR1560", "result": "responder"}, {"measurement": "TGI", "setting": "PDX CR1560", "result": 1.146}, {"measurement": "Median AUC ratio", "setting": "PDX CR2524", "result": 0.333}, {"measurement": "Response", "setting": "PDX CR2524", "result": "responder"}, {"measurement": "TGI", "setting": "PDX CR2524", "result": 1.120}, {"measurement": "Median AUC ratio", "setting": "PDX CR3079", "result": 0.706}, {"measurement": "Response", "setting": "PDX CR3079", "result": "non_responder"}, {"measurement": "TGI", "setting": "PDX CR3079", "result": 0.381}, {"measurement": "Median AUC ratio", "setting": "PDX CR3085", "result": 0.019}, {"measurement": "Response", "setting": "PDX CR3085", "result": "responder"}, {"measurement": "TGI", "setting": "PDX CR3085", "result": 1.051}, {"measurement": "Median AUC ratio", "setting": "PDX CR3310", "result": "−0.926"}, {"measurement": "Response", "setting": "PDX CR3310", "result": "responder"}, {"measurement": "TGI", "setting": "PDX CR3310", "result": 1.727}, {"measurement": "Median AUC ratio", "setting": "PDX ES0201", "result": 1.093}, {"measurement": "Response", "setting": "PDX ES0201", "result": "non_responder"}, {"measurement": "TGI", "setting": "PDX ES0201", "result": 0.529}, {"measurement": "Median AUC ratio", "setting": "PDX GA3102", "result": 0.084}, {"measurement": "Response", "setting": "PDX GA3102", "result": "responder"}, {"measurement": "TGI", "setting": "PDX GA3102", "result": 1.061}, {"measurement": "Median AUC ratio", "setting": "PDX LU0858", "result": 0.027}, {"measurement": "Response", "setting": "PDX LU0858", "result": "responder"}, {"measurement": "TGI", "setting": "PDX LU0858", "result": 1.000}, {"measurement": "Median AUC ratio", "setting": "PDX LU1116", "result": 0.111}, {"measurement": "Response", "setting": "PDX LU1116", "result": "responder"}, {"measurement": "TGI", "setting": "PDX LU1116", "result": 1.250}, {"measurement": "Median AUC ratio", "setting": "PDX LU1155", "result": 0.406}, {"measurement": "Response", "setting": "PDX LU1155", "result": "responder"}, {"measurement": "TGI", "setting": "PDX LU1155", "result": 0.991}, {"measurement": "Median AUC ratio", "setting": "PDX LU1271", "result": "−0.007"}, {"measurement": "Response", "setting": "PDX LU1271", "result": "responder"}, {"measurement": "TGI", "setting": "PDX LU1271", "result": 1.081}, {"measurement": "Median AUC ratio", "setting": "PDX OV0243", "result": "−1.983"}, {"measurement": "Response", "setting": "PDX OV0243", "result": "responder"}, {"measurement": "TGI", "setting": "PDX OV0243", "result": 1.449}, {"measurement": "Median AUC ratio", "setting": "PDX OV0273", "result": "−0.092"}, {"measurement": "Response", "setting": "PDX OV0273", "result": "responder"}, {"measurement": "TGI", "setting": "PDX OV0273", "result": 1.052}, {"measurement": "Median AUC ratio", "setting": "PDX PA1301", "result": 1.038}, {"measurement": "Response", "setting": "PDX PA1301", "result": "non_responder"}, {"measurement": "TGI", "setting": "PDX PA1301", "result": 0.285}, {"measurement": "Median AUC ratio", "setting": "PDX PA3065", "result": 0.309}, {"measurement": "Response", "setting": "PDX PA3065", "result": "responder"}, {"measurement": "TGI", "setting": "PDX PA3065", "result": 1.019}]}
